Experimental data published in US7273856B2, “Linear basic compounds having NK-2 antagonist activity and formulations thereof” (Menarini Ricerche S.P.A., priority 2001, dated 2007).
Counter-ions that a name gives are not always drawn. Like-named read-outs stand apart in the source and are kept apart here.

Biological target: T1, human NK-2 receptor (Homo sapiens, UniProt P21452)
T1 construct: expressed in transfected cells; host or cells: CHO (Chinese hamster ovary) cells, membranes
T1 sequence (P21452 1-398): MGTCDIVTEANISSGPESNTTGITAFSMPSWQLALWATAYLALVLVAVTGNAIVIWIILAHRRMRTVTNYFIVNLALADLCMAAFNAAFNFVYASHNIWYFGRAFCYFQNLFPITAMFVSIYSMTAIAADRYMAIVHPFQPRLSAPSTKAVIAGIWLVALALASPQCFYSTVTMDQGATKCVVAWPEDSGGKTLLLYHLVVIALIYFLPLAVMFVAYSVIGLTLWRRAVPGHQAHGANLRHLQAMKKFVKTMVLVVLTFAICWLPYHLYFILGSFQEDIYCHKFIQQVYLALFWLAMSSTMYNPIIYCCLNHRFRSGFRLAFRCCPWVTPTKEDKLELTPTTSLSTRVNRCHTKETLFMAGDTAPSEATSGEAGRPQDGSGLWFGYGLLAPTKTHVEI
Assay: binding test, affinity for the human NK-2 receptor, competition with [125I]NKA on transfected CHO cell membranes
Method: The evaluation of the antagonist activity on NK-2 receptors has been assessed by binding and functional tests according to that already described in literature in relation to NK-2 antagonists.
The test substances have been tested within a concentration range from 0.01 nM to 10 nM. At the end of the incubation time (30 min, 20° C.) the samples have been filtered and radioactivity has been determined using a gamma-counter.

[1] = CHO cell membranes transfected with NK-2 receptor of human ileum, [125I]NKA 100 pM, 30 min, 20° C.

`Cc1ccc2oc(C(=O)NC3(C(=O)N[C@H](Cc4ccccc4)C(=O)NCC4CCN(CC5CCOCC5)CC4)CCCC3)cc2c1` [Example 126, 5-Methyl-benzofuran-2-carboxylic acid [1-(2-phenyl-1R-([1-(tetrahydro-pyran-4-ylmethyl)-piperidin-4-ylmethyl]-carbamoyl}-ethylcarbamoyl)-cyclopentyl]-amide] was tested, and the Ki [1] was 0.158 nM.

`O=C(NC1(C(=O)N[C@H](Cc2ccccc2)C(=O)NCC2CCN(CC3CCOCC3)CC2)CCCC1)c1ccc2ccccc2c1` [Example 151, Naphthalene-2-carboxylic acid [1-(2-phenyl-1R-{[1-(tetrahydro-pyran-4-ylmethyl)-piperidin-4-ylmethyl]-carbamoyl}-ethylcarbamoyl)-cyclopentyl]-amide] was tested, and the Ki [1] was 1.26 nM.

Work on `CC[C@@](C)(NC(=O)c1cc2ccccc2s1)C(=O)N[C@H](Cc1ccccc1)C(=O)N[C@H]1CC[C@@H](C(=O)N[C@H]2CCCC[C@@H]2N)C1.O=C(O)C(F)(F)F` [Example 14, N^γ{N^α[N^α(benzo[b]thiophen-2-ylcarbonyl)-(R)-α-methyl-α-ethylglycyl]-D-phenylalanyl}-(1R,3S)3-amino cyclopentane-1-carboxylic-acid-N-((1S,2S)-2-aminocyclohexyl) amide trifluoroacetate salt] yielded a pKi [1] of 9.9.

`O=C(NC1(C(=O)N[C@H](Cc2ccccc2)C(=O)NCCC2CCN(C(=O)[C@H]3CCCN3)CC2)CCCC1)c1ccc2cc(Br)ccc2c1` [Example 99, 6-Bromo-naphthalene-2-carboxylic acid [1-(2-phenyl-1(R)-{2-[1-(pyrrolidine-2(R)-carbonyl)-piperidin-4-yl]-ethylcarbamoyl}-ethylcarbamoyl)-cyclopentyl]-amide] showed a Ki [1] of 0.316 nM.

For `O=C(NC1(C(=O)N[C@H](Cc2ccccc2)C(=O)NCCN2CCN(CC3CCOCC3)CC2)CCCC1)c1cc2ccccc2s1` [Example 101, Benzo[b]thiophene-2-carboxylic acid [1-(2-phenyl-1(R)-{2-[4-(tetrahydro-pyran-4-ylmethyl)-piperazin-1-yl]-ethylcarbamoyl}-ethylcarbamoyl)-cyclopentyl)-amide TFA salt], the Ki [1] was 1.26 nM.

For `O=C(NC1(C(=O)N[C@H](Cc2ccccc2)C(=O)NCC2CCN(CC3CCOCC3)CC2)CCCC1)c1cc2cc(I)ccc2o1` [Example 127, 5-Iodo-benzofuran-2-carboxylic acid [1-(2-phenyl-1R-{[1-(tetrahydro-pyran-4-ylmethyl)-piperidin-4-ylmethyl]-carbamoyl}-ethylcarbamoyl)-cyclopentyl]-amide], the Ki [1] was 0.0794 nM.

`CN(C)[C@H]1CCCC[C@@H]1NC(=O)[C@@H]1CC[C@H](NC(=O)[C@@H](Cc2ccccc2)NC(=O)C2(NC(=O)c3cc4ccccc4o3)CCCC2)C1` [Example 11, N^γ{N^α[N^α(benzofuran-2-ylcarboxy)-1-aminocyclopentan-1-carboxy]-D-phenylalanyl}-(1R,3S)-3-aminocyclopentane-1-carboxylic-acid-N-((1S,2S)-2-dimethylaminocyclohexyl)amide hydrochloride salt] showed a Ki [1] of 2 nM.

`O=C(NC1(C(=O)N[C@@H](CNCCC2CCN(C(=O)Cc3cccs3)CC2)Cc2ccccc2)CCCC1)c1cc2ccccc2s1` [Example 94, Benzo[b]thiophene-2-carboxylic acid [1-(1(R)benzyl-2-{2-[1-(thiophen-2-yl-acetyl)-piperidin-4-yl]-ethylamino}-ethylcarbamoyl)-cyclopentyl]-amide TFA salt] showed a Ki [1] of 0.631 nM.

`O=C(NC1(C(=O)N[C@H](Cc2ccccc2)C(=O)NCC2CCN(CC3CCOCC3)CC2)CCCC1)c1ccc2cc(Br)ccc2c1` [Example 72, 6-Bromo-naphthalene-2-carboxylic acid [1-(2-phenyl-1(R)-{[-(tetrahydro-pyran-4-ylmethyl)-piperidin-4-ylmethyl]-carbamoyl}-ethylcarbamoyl)-cyclopentyl]-amide] showed a pKi [1] of 10.0.

`Cc1cccc2cc(C(=O)NC3(C(=O)N[C@H](Cc4ccccc4)C(=O)NCC4CCN(CC5CCOCC5)CC4)CCCC3)sc12` [Example 134, 7-Methyl-benzo[b]thiophene-2-carboxylic acid [1-(2-phenyl-1R-{[1-(tetrahydro-pyran-4-ylmethyl)-piperidin-4-ylmethyl]-carbamoyl}-ethylcarbamoyl)-cyclopentyl]-amide] gave a Ki [1] of 0.0631 nM.

Molecule `Cc1cc2oc(C(=O)NC3(C(=O)N[C@H](Cc4ccccc4)C(=O)NCC4CCN(CC5CCOCC5)CC4)CCCC3)c(C)c2cc1C` [Example 148, 3,5,6-Trimethyl-benzofuran-2-carboxylic acid [1-(2-phenyl-1-{[1R-(tetrahydro-pyran-4-ylmethyl)-piperidin-4-ylmethyl]-carbamoyl}-ethylcarbamoyl)-cyclopentyl]-amide] has a Ki [1] of 0.316 nM.

`O=C(NC1(C(=O)N[C@H](Cc2ccccc2)C(=O)NCC2CCN(CC3CCOCC3)CC2)CCCC1)c1ccc2cc(I)ccc2c1` [Example 117, 6-Iodo-naphthalene-2-carboxylic acid (1-(2-phenyl-1R-{[1-(tetrahydro-pyran-4-ylmethyl)-piperidin-4-ylmethyl]-carbamoyl}-ethylcarbamoyl)-cyclopentyl]-amide] showed a Ki [1] of 0.0501 nM.

With `NC1CCCCC1NC(=O)C1CCC(NC(=O)C(Cc2ccccc2)NC(=O)C2(NC(=O)c3cc4ccccc4s3)CCCC2)C1` (single isomer, unassigned) [Example 2] the Ki [1] was 0.158 nM.

With `N[C@H]1CCCC[C@@H]1NC(=O)[C@@H]1CC[C@H](NC(=O)[C@@H](Cc2ccccc2)NC(=O)C2(NC(=O)c3cc4ccccc4o3)CCCC2)C1.O=C(O)C(F)(F)F` [Example 6] the pKi was 9.7.

For `CCN(CC)c1ccc2oc(C(=O)NC3(C(=O)N[C@H](Cc4ccccc4)C(=O)NCC4CCN(CC5CCOCC5)CC4)CCCC3)cc2c1` [Example 147], the Ki [1] was 0.631 nM.

For `CN1CCN(C(=O)[C@@H]2CC[C@H](NC(=O)[C@@H](Cc3ccccc3)NC(=O)C3(NC(=O)c4cc5ccccc5s4)CCCC3)C2)CC1` [Example 33, N^α[N^α(benzo[b]thiophen-2-ylcarbonyl)-1-aminocyclopentan-1-carboxy]-D-phenylalanine amide-N-[(1S,3R)-3-(4-(methyl)piperazin-1-yl)carbonyl)cyclopentane], the Ki [1] was 0.631 nM.

In the case of `O=C(NC1(C(=O)N[C@H](Cc2ccccc2)C(=O)NCCC(=O)N2CCN(CC3COCOC3)CC2)CCCC1)c1cc2ccccc2s1` [Example 62, Benzo[b]thiophene-2-carboxylic acid (1-{1(R)-[3-(4-[1,3]dioxan-5-ylmethyl-piperazin-1-yl)3-oxo-propylcarbamoyl]-2-phenyl-ethylcarbamoyl}-cyclopentyl)-amide TFA salt], the Ki [1] is reported as 2 nM.

Molecule `CCN1CCC(CNC(=O)[C@@H](Cc2ccccc2)NC(=O)C2(NC(=O)c3ccc4cc(Br)ccc4c3)CCCC2)CC1` [Example 76, 6-Bromo-naphthalene-2-carboxylic acid (1-{1(R)-[(1-ethyl-piperidin-4-ylmethyl)-carbamoyl]-2-phenyl-ethylcarbamoyl}-cyclopentyl)-amide] has a Ki [1] of 1 nM.

Molecule `O=C(C=Cc1ccc(Br)c(Br)c1)NC1(C(=O)N[C@H](Cc2ccccc2)C(=O)NCCCN2CCOCC2)CCCC1` [Example 50, 1-[3-(3,4-dibromophenyl)-acryloylamino]-cyclopentanecarboxylic acid [1-(3-morpholin-4-yl-propylcarbamoyl)-2-(R)-phenyl-ethyl]-amide] has a Ki [1] of 0.398 nM.

For `N[C@@H]1CCCC[C@H]1NC(=O)[C@@H]1C[C@@H](NC(=O)[C@@H](Cc2ccccc2)NC(=O)C2(NC(=O)c3cc4ccccc4s3)CCCCC2)CN1` [Example 27, N^γ{N^α[N^α(benzo[b]thiophen-2-ylcarbonyl)-1-aminocyclohexane-1-carboxy]-D-phenylalanil}-(L-(4R)amino-proline-N-(1R,2R)-aminocyclohexyl) amide], the Ki [1] was 0.0631 nM.

For `CC(C)(C)c1cccc2cc(C(=O)NC3(C(=O)N[C@H](Cc4ccccc4)C(=O)NCC4CCN(CC5CCOCC5)CC4)CCCC3)oc12` [Example 124, 7-tert-Butyl-benzofuran-2-carboxylic acid [1-(2-phenyl-1R-{[1-(tetrahydro-pyran-4 ylmethyl)-piperidin-4-ylmethyl]-carbamoyl}-ethylcarbamoyl)-cyclopentyl]-amide], the Ki [1] was 0.1 nM.

With `Nc1ccc2cc(C(=O)NC3(C(=O)N[C@H](Cc4ccccc4)C(=O)NCCCN4CCOCC4)CCCC3)sc2c1` [Example 115, 6-Amino-benzo[b]thiophene-2-carboxylic acid {1-[1R-(3-morpholin-4-yl-propylcarbamoyl)-2-phenyl-ethylcarbamoyl]-cyclopentyl]-amide] the Ki [1] was 3.16 nM.

`O=C(NC1(C(=O)N[C@H](Cc2ccccc2)C(=O)NCC2CCN(C3CCSCC3)CC2)CCCC1)c1cc2cc(Cl)ccc2o1` [Example 93, 5-Chloro-benzofuran-2-carboxylic acid [1-(2-phenyl-1(R)-{[1-(tetrahydro-thiopyran-4-yl)-piperidin-4-ylmethyl]-carbamoyl}-ethylcarbamoyl)cyclopentyl]-amide] was tested, and the Ki [1] was 0.0794 nM.

Molecule `O=C(NC1(C(=O)N[C@H](Cc2ccccc2)C(=O)NCC2CCN(CC3CCOCC3)CC2)CCCC1)c1cc2cccc(Cl)c2s1` [Example 137, 7-Chloro-benzo[b]thiophene-2-carboxylic acid [1-(2-phenyl-1R-{[1-(tetrahydro-pyran-4-ylmethyl)-piperidin-4-ylmethyl]-carbamoyl}-ethylcarbamoyl)-cyclopentyl]-amide] has a Ki [1] of 0.0794 nM.

In the case of `N[C@H]1CCCC[C@@H]1NC[C@@H]1CC[C@H](NC(=O)[C@@H](Cc2ccccc2)NC(=O)C2(NC(=O)c3cc4ccccc4s3)CCCC2)C1` [Example 38], the pKi [1] is reported as 9.5.
